Data as given in PubChem BioAssay (NCI).
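GI50 = concentration required for 50% inhibition of growth. TGI denotes the concentration required for complete inhibition of growth.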

Legend:
Experiment in all cases: NCI tumour cell line growth inhibition, 384-well format
MCF7 breast = tested on: MCF7 breast
NCI-H322M lung = tested on: NCI-H322M lung
BT-549 breast = tested on: BT-549 breast
DU-145 prostate = tested on: DU-145 prostate
SNB-75 CNS = tested on: SNB-75 CNS
NCI-H23 lung = tested on: NCI-H23 lung
SK-MEL-28 melanoma = tested on: SK-MEL-28 melanoma
A549 NSCLC = tested on: A549 NSCLC
NCI-H460 NSCLC = tested on: NCI-H460 NSCLC
MOLT-4 leukemia = tested on: MOLT-4 leukemia
IGROV1 ovarian = tested on: IGROV1 ovarian
SF-268 CNS = tested on: SF-268 CNS
T-47D breast = tested on: T-47D breast
A498 renal = tested on: A498 renal
OVCAR-4 ovarian = tested on: OVCAR-4 ovarian
HCT-15 colon = tested on: HCT-15 colon
SNB-19 CNS = tested on: SNB-19 CNS
K-562 leukemia = tested on: K-562 leukemia
MDA-MB-435 melanoma = tested on: MDA-MB-435 melanoma
SW-620 colon = tested on: SW-620 colon
SN12C renal = tested on: SN12C renal
UACC-257 melanoma = tested on: UACC-257 melanoma
RXF 393 renal = tested on: RXF 393 renal
SR leukemia = tested on: SR leukemia
OVCAR-5 ovarian = tested on: OVCAR-5 ovarian
U251 glioblastoma = tested on: U251 glioblastoma
NCI-H226 lung = tested on: NCI-H226 lung
SK-OV-3 ovarian = tested on: SK-OV-3 ovarian

With N#Cc1ncc(N2C(=O)C3(CCC3)N(c3ccc(OC4CCNCC4)nc3)C2=S)cc1C(F)(F)F the GI50 (MCF7 breast) was 4.76 µM, the TGI (MCF7 breast) was 16.6 µM and the GI50 (NCI-H322M lung) was 17.9 µM. The TGI (NCI-H322M lung) was 32.5 µM, the GI50 (BT-549 breast) was 11.1 µM and the TGI (BT-549 breast) was 23.1 µM. For the same compound, the GI50 (DU-145 prostate) was 14.5 µM, the TGI (DU-145 prostate) was 27.9 µM and the GI50 (SNB-75 CNS) was 14.5 µM. For the same compound, the TGI (SNB-75 CNS) was 27.7 µM, the GI50 (NCI-H23 lung) was 11 µM and the TGI (NCI-H23 lung) was 23 µM. It also gave a GI50 (SK-MEL-28 melanoma) of 2.32 µM, a TGI (SK-MEL-28 melanoma) of 5.21 µM and a GI50 (A549 NSCLC) of 16.7 µM. For the same compound, the TGI (A549 NSCLC) was 30.5 µM, the GI50 (NCI-H460 NSCLC) was 11.2 µM and the TGI (NCI-H460 NSCLC) was 23.4 µM. For the same compound, the GI50 (MOLT-4 leukemia) was 10.1 µM, the TGI (MOLT-4 leukemia) was 21.7 µM and the GI50 (IGROV1 ovarian) was 14.4 µM. For the same compound, the TGI (IGROV1 ovarian) was 27.7 µM, the GI50 (SF-268 CNS) was 13.4 µM and the TGI (SF-268 CNS) was 26.3 µM. The GI50 (T-47D breast) was 8.96 µM, the TGI (T-47D breast) was 21.1 µM and the GI50 (A498 renal) was 10.8 µM. The TGI (A498 renal) was 22.7 µM, the GI50 (OVCAR-4 ovarian) was 13.6 µM and the TGI (OVCAR-4 ovarian) was 26.5 µM. For the same compound, the GI50 (HCT-15 colon) was 5.19 µM, the TGI (HCT-15 colon) was 16.6 µM and the GI50 (SNB-19 CNS) was 19.1 µM. It also gave a TGI (SNB-19 CNS) of 35.3 µM, a GI50 (K-562 leukemia) of 4.27 µM and a TGI (K-562 leukemia) of 16.1 µM. For the same compound, the GI50 (MDA-MB-435 melanoma) was 13.4 µM, the TGI (MDA-MB-435 melanoma) was 26.3 µM and the GI50 (SW-620 colon) was 14.5 µM. It also gave a TGI (SW-620 colon) of 27.8 µM, a GI50 (SN12C renal) of 15.5 µM and a TGI (SN12C renal) of 28.9 µM. It also gave a GI50 (UACC-257 melanoma) of 1.99 µM, a TGI (UACC-257 melanoma) of 3.79 µM and a GI50 (RXF 393 renal) of 2.63 µM. It also gave a TGI (RXF 393 renal) of 7.32 µM, a GI50 (SR leukemia) of 1.9 µM and a TGI (SR leukemia) of 3.91 µM. The GI50 (OVCAR-5 ovarian) was 13.8 µM, the TGI (OVCAR-5 ovarian) was 27 µM and the GI50 (U251 glioblastoma) was 17.2 µM. For the same compound, the TGI (U251 glioblastoma) was 31 µM, the GI50 (NCI-H226 lung) was 8.62 µM and the TGI (NCI-H226 lung) was 20.7 µM. The GI50 (SK-OV-3 ovarian) was 18.1 µM.
